The values that follow are results of earlier work, collected in patent US9511027B1, “Calcium supplement having enhanced absorption” (Delavau L.L.C., priority 2006, dated 2016).

In the case of `[Ca+2]` [calcium], under “9 to 18 year olds, Wastney et al. 1996”, the percent absorption is given as 38%. Under “adults, basis of the AIs of 1,000 mg and 1,200 mg, Heaney et al. 1988”, the elemental calcium absorbed entry is reported as “about 30%”.
